Tested on: not listed separately
Test: MTT cytotoxicity assay, HEK-293 cell line
Format: cell-based
Conditions: human, HEK-293 cells, final concentration of 50 μM
Description: (§1) Cellular safety profiling of adamantane thioureas were done through MTT assay. All compounds were analyzed for toxicity at final concentration of 50 μM. […] Toxicity was determined against two cancer cell lines including human 1321N1 Astrocytoma cell line, HeLa cell line and a normal HEK-293 cell line.
(§2) c. Cell Viability Assay (MTT Assay)
(§3) After 24 h of incubation at 37° C. in CO2 incubator, culture media will be replaced with serum-free media along with test compounds and re-incubate. After 24 h, media will be removed and add 100 μL of MTT reagent (0.5-5 mg/mL) and will be incubated for a further 4 h, at 37° C. Absorbance will be measured at 570 and 630 nm to calculate cell viability.

SMILES	cytotoxicity at 24 h, 50 µM [%]
O=C(NC(=S)Nc1cccnc1Cl)C12CC3CC(CC(C3)C1)C2 [If, N-((2-chloropyridin-3-yl)carbamothioyl)adamantane-1-carboxamide]	4.95
Cc1cc(Br)ccc1NC(=S)NC(=O)C12CC3CC(CC(C3)C1)C2 [In, N-((4-bromo-2-methylphenyl)carbamothioyl)adamantane-1-carboxamide]	14
O=C(NC(=S)Nc1cccc2cccnc12)C12CC3CC(CC(C3)C1)C2 [Io, N-(quinolin-8-ylcarbamothioyl)adamantane-1-carboxamide]	17.6
CC(C)c1ccc(NC(=S)NC(=O)C23CC4CC(CC(C4)C2)C3)c(Br)c1 [Ip, N-((2-bromo-4-isopropylphenyl)carbamothioyl)adamantane-1-carboxamide]	20.6
O=C(NC(=S)Nc1cc(Br)ccc1Br)C12CC3CC(CC(C3)C1)C2 [Iq, N-((2,5-dibromophenyl)carbamothioyl)adamantane-1-carboxamide]	14.8

Biological target: h-P2X5 (Homo sapiens, UniProt Q93086)
Test: Ca2+ flux assay h-P2X5
Conditions: read-out: h-P2X5 % Inhibition
Description: (§5) Compounds were initially analyzed at a final concentration of about 50 μM and percentage of inhibition was calculated.
(§6) Calcium Mobilization Assay to Measure P2X Receptors Response Cell Culture: P2X receptors functions can be analyzed from ATP-induced increase in cytosolic Ca^2+ concentration. Two Ca^2+ chelating dyes, Fura-2 AM and Fluo-4 AM can be used to determine the intracellular Ca^2+ concentration through a fluorescent imaging micro-titer plate reader (BMG Labtech: FLUOstar Galaxy®). Non-transfected human 1321N1 astrocytoma cells, as well as P2X receptors transfected human 1321N1 astrocytoma cells will be cultured in T-75 cm^2 cell culture flask having appropriate cell culture growth media; Dulbecco's Modified Eagle's medium (DMEM) supplemented with 10% fetal bovine serum (FBS), 75 μg/mL of Hygromycin B or human P2X receptors transfected cell lines and 1% pen-strep (antibiotics). Cells will be incubated at 37° C. in 5% CO2 incubator until 80 to 90% cell confluency will be achieved. Cells will be maintained in an exponential growth phase throughout the experiment and closely monitored for contamination.
Measurement of Ca^2+ Flux
(§7) When 1321N1 cells will reach 80 to 90% of confluency, cells will be harvested from T-75 cm^2 flask by trypsinization. After washing the cells with phosphate buffer saline (PBS), cells will be seeded at a density of 20,000 cells/well in black, clear bottom, poly-D-lysine coated 96 well plate. After 16 to 24 h, cell culture media will be removed and add Hank's balanced salt solution (HBSS) containing 3 μM Ca^2+ chelating dyes Fura-2 AM or Fluo-4 AM. After 1 h of incubation at 23° C., the loading dye solution will be removed, and added seven to eight dilutions of test compounds in triplicate format. ATP (at a concentration value of EC80) or buffer will be added and measured the excitation and emission at 340/520 nm and 380/520 nm through FLUOStar Galaxy®. Assay volume for the experiment will be 200 μL. IC50 and EC50 values will be calculated by PRISM 5.0 (GrapgPad, San Diego, Calif., USA) through non-linear regression analysis.

Sequence of h-P2X5 (Q93086 whole entry): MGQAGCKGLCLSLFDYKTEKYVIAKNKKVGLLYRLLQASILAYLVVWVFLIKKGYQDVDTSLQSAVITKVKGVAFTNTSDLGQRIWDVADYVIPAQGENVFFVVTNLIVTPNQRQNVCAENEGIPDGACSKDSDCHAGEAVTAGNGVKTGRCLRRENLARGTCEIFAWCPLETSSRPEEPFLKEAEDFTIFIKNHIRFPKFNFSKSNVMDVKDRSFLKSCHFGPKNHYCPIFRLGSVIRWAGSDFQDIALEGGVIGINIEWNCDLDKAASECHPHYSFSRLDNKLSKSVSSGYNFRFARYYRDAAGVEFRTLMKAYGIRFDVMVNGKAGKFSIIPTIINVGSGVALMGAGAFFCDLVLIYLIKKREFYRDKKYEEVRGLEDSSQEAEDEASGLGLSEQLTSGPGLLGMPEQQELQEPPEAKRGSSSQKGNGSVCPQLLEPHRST

SMILES	inhibition at 50 µM [%]
O=C(NC(=S)Nc1cccnc1Cl)C12CC3CC(CC(C3)C1)C2 [If, N-((2-chloropyridin-3-yl)carbamothioyl)adamantane-1-carboxamide]	25.5
Cc1cc(Br)ccc1NC(=S)NC(=O)C12CC3CC(CC(C3)C1)C2 [In, N-((4-bromo-2-methylphenyl)carbamothioyl)adamantane-1-carboxamide]	27.1

Second part, the molecule after the results:

inhibition at 50 µM [%]	SMILES
31.5	O=C(NC(=S)Nc1cccc2cccnc12)C12CC3CC(CC(C3)C1)C2 [Io, N-(quinolin-8-ylcarbamothioyl)adamantane-1-carboxamide]
12.4	CC(C)c1ccc(NC(=S)NC(=O)C23CC4CC(CC(C4)C2)C3)c(Br)c1 [Ip, N-((2-bromo-4-isopropylphenyl)carbamothioyl)adamantane-1-carboxamide]
16.2	O=C(NC(=S)Nc1cc(Br)ccc1Br)C12CC3CC(CC(C3)C1)C2 [Iq, N-((2,5-dibromophenyl)carbamothioyl)adamantane-1-carboxamide]

Biological target: T1, h-P2X2 (Homo sapiens, UniProt Q9UBL9)
T1 sequence (Q9UBL9 1-471): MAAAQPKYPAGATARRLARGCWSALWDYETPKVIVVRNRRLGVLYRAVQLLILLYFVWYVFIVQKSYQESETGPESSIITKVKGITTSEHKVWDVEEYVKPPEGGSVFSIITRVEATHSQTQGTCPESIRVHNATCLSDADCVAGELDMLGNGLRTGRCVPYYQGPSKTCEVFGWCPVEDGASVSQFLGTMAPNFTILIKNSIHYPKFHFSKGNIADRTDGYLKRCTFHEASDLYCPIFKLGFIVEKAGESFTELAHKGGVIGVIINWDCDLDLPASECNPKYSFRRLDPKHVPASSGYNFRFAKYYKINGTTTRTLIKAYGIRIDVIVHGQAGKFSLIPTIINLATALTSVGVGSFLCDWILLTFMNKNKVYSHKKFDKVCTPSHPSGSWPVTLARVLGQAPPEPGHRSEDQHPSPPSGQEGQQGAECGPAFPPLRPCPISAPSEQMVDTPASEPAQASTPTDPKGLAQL
Test: Ca2+ flux assay h-P2X2
Conditions: read-out: h-P2X2 % Inhibition
Description: as §5, §6
Measurement of Ca^2+ Flux
as §7

SMILES	inhibition at 50 µM [%]
O=C(NC(=S)Nc1cccnc1Cl)C12CC3CC(CC(C3)C1)C2 [If, N-((2-chloropyridin-3-yl)carbamothioyl)adamantane-1-carboxamide]	13.2
Cc1cc(Br)ccc1NC(=S)NC(=O)C12CC3CC(CC(C3)C1)C2 [In, N-((4-bromo-2-methylphenyl)carbamothioyl)adamantane-1-carboxamide]	22.7

Continued, values first:

inhibition at 50 µM [%]	SMILES
15.3	O=C(NC(=S)Nc1cccc2cccnc12)C12CC3CC(CC(C3)C1)C2 [Io, N-(quinolin-8-ylcarbamothioyl)adamantane-1-carboxamide]
30.2	CC(C)c1ccc(NC(=S)NC(=O)C23CC4CC(CC(C4)C2)C3)c(Br)c1 [Ip, N-((2-bromo-4-isopropylphenyl)carbamothioyl)adamantane-1-carboxamide]
41.1	O=C(NC(=S)Nc1cc(Br)ccc1Br)C12CC3CC(CC(C3)C1)C2 [Iq, N-((2,5-dibromophenyl)carbamothioyl)adamantane-1-carboxamide]

Biological target: T2, h-P2X4 (Homo sapiens, UniProt Q99571)
T2 sequence (Q99571 1-388): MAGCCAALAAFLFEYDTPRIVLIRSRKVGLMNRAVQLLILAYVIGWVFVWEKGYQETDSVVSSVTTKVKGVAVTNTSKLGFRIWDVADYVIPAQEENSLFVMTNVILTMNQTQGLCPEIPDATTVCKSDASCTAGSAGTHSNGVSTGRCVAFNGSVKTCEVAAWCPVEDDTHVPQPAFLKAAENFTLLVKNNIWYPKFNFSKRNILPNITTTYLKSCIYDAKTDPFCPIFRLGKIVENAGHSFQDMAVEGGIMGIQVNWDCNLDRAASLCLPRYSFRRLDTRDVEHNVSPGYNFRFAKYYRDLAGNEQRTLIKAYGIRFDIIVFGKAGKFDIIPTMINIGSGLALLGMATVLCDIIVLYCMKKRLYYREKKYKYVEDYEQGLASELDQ
Test: Ca2+ flux assay h-P2X4
Conditions: not given

SMILES	IC50 [nM]
O=C(NC(=S)Nc1cc(Br)ccc1Br)C12CC3CC(CC(C3)C1)C2 [Iq, N-((2,5-dibromophenyl)carbamothioyl)adamantane-1-carboxamide]	5730 ± 420

Same assay, conditions: read-out: h-P2X4 % Inhibition

SMILES	inhibition at 50 µM [%]
Cc1cc(Br)ccc1NC(=S)NC(=O)C12CC3CC(CC(C3)C1)C2 [In, N-((4-bromo-2-methylphenyl)carbamothioyl)adamantane-1-carboxamide]	34.9
O=C(NC(=S)Nc1cccc2cccnc12)C12CC3CC(CC(C3)C1)C2 [Io, N-(quinolin-8-ylcarbamothioyl)adamantane-1-carboxamide]	25.1

Same assay, conditions: read-out: h-P2X4 IC50 ± SEM; Ca2+ flux, n = 3

SMILES	IC50 [nM]
O=C(NC(=S)Nc1cccnc1Cl)C12CC3CC(CC(C3)C1)C2 [If, N-((2-chloropyridin-3-yl)carbamothioyl)adamantane-1-carboxamide]	1270 ± 110
CC(C)c1ccc(NC(=S)NC(=O)C23CC4CC(CC(C4)C2)C3)c(Br)c1 [Ip, N-((2-bromo-4-isopropylphenyl)carbamothioyl)adamantane-1-carboxamide]	40 ± 10

Biological target: T3, h-P2X7 (Homo sapiens, UniProt Q99572)
T3 sequence (Q99572 1-595): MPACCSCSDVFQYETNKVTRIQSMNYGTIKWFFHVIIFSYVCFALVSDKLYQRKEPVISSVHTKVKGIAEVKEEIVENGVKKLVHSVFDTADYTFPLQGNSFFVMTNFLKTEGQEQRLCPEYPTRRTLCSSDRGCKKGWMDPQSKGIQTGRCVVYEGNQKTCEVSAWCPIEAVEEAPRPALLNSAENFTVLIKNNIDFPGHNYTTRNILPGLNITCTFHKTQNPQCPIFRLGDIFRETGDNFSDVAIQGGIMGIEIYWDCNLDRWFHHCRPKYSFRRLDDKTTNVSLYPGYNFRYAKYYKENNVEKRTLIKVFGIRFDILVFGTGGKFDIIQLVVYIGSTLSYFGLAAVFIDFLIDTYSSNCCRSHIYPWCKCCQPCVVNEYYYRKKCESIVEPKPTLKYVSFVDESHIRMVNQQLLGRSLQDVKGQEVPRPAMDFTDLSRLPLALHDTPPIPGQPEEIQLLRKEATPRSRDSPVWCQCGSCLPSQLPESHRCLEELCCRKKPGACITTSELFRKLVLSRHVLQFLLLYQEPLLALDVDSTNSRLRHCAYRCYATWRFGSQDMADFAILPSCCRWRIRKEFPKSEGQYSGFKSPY
Test: Mode of receptor inhibition, BzATP dose-response curve at h-P2X7R
Format: cell-based
Parameters: expressed in transfected cells; host or cells: human 1321N1 astrocytoma cells
Conditions: h-P2X7R expressed cell line, different dilutions of compound
Description: (§4) Different dilutions of compounds were administered to receptors expressed cell line.

SMILES	mechanism of receptor inhibition
O=C(NC(=S)Nc1cccc2cccnc12)C12CC3CC(CC(C3)C1)C2 [Io, N-(quinolin-8-ylcarbamothioyl)adamantane-1-carboxamide]	negative allosteric modulators

Tested on: not listed separately
Test: MTT cytotoxicity assay, human 1321N1 astrocytoma cell line
Format: cell-based
Conditions: human, 1321N1 astrocytoma cells, final concentration of 50 μM
Description: as §1, §2, §3

SMILES	cytotoxicity at 24 h, 50 µM [%]
O=C(NC(=S)Nc1cccnc1Cl)C12CC3CC(CC(C3)C1)C2 [If, N-((2-chloropyridin-3-yl)carbamothioyl)adamantane-1-carboxamide]	11.4
Cc1cc(Br)ccc1NC(=S)NC(=O)C12CC3CC(CC(C3)C1)C2 [In, N-((4-bromo-2-methylphenyl)carbamothioyl)adamantane-1-carboxamide]	14.3
O=C(NC(=S)Nc1cccc2cccnc12)C12CC3CC(CC(C3)C1)C2 [Io, N-(quinolin-8-ylcarbamothioyl)adamantane-1-carboxamide]	9.12
CC(C)c1ccc(NC(=S)NC(=O)C23CC4CC(CC(C4)C2)C3)c(Br)c1 [Ip, N-((2-bromo-4-isopropylphenyl)carbamothioyl)adamantane-1-carboxamide]	19.7
O=C(NC(=S)Nc1cc(Br)ccc1Br)C12CC3CC(CC(C3)C1)C2 [Iq, N-((2,5-dibromophenyl)carbamothioyl)adamantane-1-carboxamide]	21.2

Biological target: T2, h-P2X4
Test: Mode of receptor inhibition, ATP dose-response curve at h-P2X4R
Format: cell-based
Parameters: expressed in transfected cells; host or cells: human 1321N1 astrocytoma cells
Conditions: h-P2X4R expressed cell line, different dilutions of compound
Description: as §4

SMILES	mechanism of receptor inhibition
CC(C)c1ccc(NC(=S)NC(=O)C23CC4CC(CC(C4)C2)C3)c(Br)c1 [Ip, N-((2-bromo-4-isopropylphenyl)carbamothioyl)adamantane-1-carboxamide]	negative allosteric modulators

Biological target: T3, h-P2X7
Test: Ca2+ flux assay h-P2X7
Conditions: read-out: h-P2X7 % Inhibition
Description: as §5, §6
Measurement of Ca^2+ Flux
as §7

SMILES	inhibition at 50 µM [%]
Cc1cc(Br)ccc1NC(=S)NC(=O)C12CC3CC(CC(C3)C1)C2 [In, N-((4-bromo-2-methylphenyl)carbamothioyl)adamantane-1-carboxamide]	18.8
CC(C)c1ccc(NC(=S)NC(=O)C23CC4CC(CC(C4)C2)C3)c(Br)c1 [Ip, N-((2-bromo-4-isopropylphenyl)carbamothioyl)adamantane-1-carboxamide]	42.5
O=C(NC(=S)Nc1cc(Br)ccc1Br)C12CC3CC(CC(C3)C1)C2 [Iq, N-((2,5-dibromophenyl)carbamothioyl)adamantane-1-carboxamide]	11.2

Same assay, conditions: read-out: h-P2X7 IC50 ± SEM; Ca2+ flux, n = 3

SMILES	IC50 [nM]
O=C(NC(=S)Nc1cccnc1Cl)C12CC3CC(CC(C3)C1)C2 [If, N-((2-chloropyridin-3-yl)carbamothioyl)adamantane-1-carboxamide]	99 ± 70
O=C(NC(=S)Nc1cccc2cccnc12)C12CC3CC(CC(C3)C1)C2 [Io, N-(quinolin-8-ylcarbamothioyl)adamantane-1-carboxamide]	73 ± 40

Tested on: not listed separately
Test: MTT cytotoxicity assay, HeLa cell line
Format: cell-based
Conditions: human, HeLa cells, final concentration of 50 μM
Description: as §1, §2, §3

SMILES	cytotoxicity at 24 h, 50 µM [%]
O=C(NC(=S)Nc1cccnc1Cl)C12CC3CC(CC(C3)C1)C2 [If, N-((2-chloropyridin-3-yl)carbamothioyl)adamantane-1-carboxamide]	5.21
Cc1cc(Br)ccc1NC(=S)NC(=O)C12CC3CC(CC(C3)C1)C2 [In, N-((4-bromo-2-methylphenyl)carbamothioyl)adamantane-1-carboxamide]	4.1
O=C(NC(=S)Nc1cccc2cccnc12)C12CC3CC(CC(C3)C1)C2 [Io, N-(quinolin-8-ylcarbamothioyl)adamantane-1-carboxamide]	6.22
CC(C)c1ccc(NC(=S)NC(=O)C23CC4CC(CC(C4)C2)C3)c(Br)c1 [Ip, N-((2-bromo-4-isopropylphenyl)carbamothioyl)adamantane-1-carboxamide]	23.5
O=C(NC(=S)Nc1cc(Br)ccc1Br)C12CC3CC(CC(C3)C1)C2 [Iq, N-((2,5-dibromophenyl)carbamothioyl)adamantane-1-carboxamide]	20.7

Biological target: T3, h-P2X7
Test: BzATP induced Ethidium Bromide dye-uptake assay (pore formation)
Format: cell-based
Parameters: expressed in transfected cells; host or cells: human 1321N1 astrocytoma cells
Conditions: read-out: Emax % (at 20 μM inhibitor concentration), BzATP induced Ethidium Bromide dye uptake; 20 μM inhibitor concentration; BzATP without inhibitor = 100
Excerpt: This is a specific assay to access the activities of P2X7R. Prolong exposure of P2X7R leads to pore formation that results intake of large molecular weight dye through this pore. An inhibitor of P2X7R inhibits this pore formation that confirms the inhibitory potential of compounds.
e. Ethidium Bromide Dye-Uptake Assay for P2X7 Receptors: (Pore Formation)
Human astrocytoma 1321N1 cells stably expressing P2X7 receptors will be seeded in the black wall, clear bottom and poly-D-lysine coated 96 wells plate at a cell density of 20,000 cells/well. After 24 h of incubation, culture medium will be removed, and wash the cells with dye uptake buffer. Cells will be treated with ethidium bromide with the subsequent addition of different concentrations of Bz-ATP to 96 wells plate in triplicate format. […] For screening of P2X7 receptor antagonists, cells will be treated with different concentrations of test compounds for 15 min at 37° C. before the addition of Bz-ATP.

SMILES	Emax at 20 µM [%]
O=C(NC(=S)Nc1cccnc1Cl)C12CC3CC(CC(C3)C1)C2 [If, N-((2-chloropyridin-3-yl)carbamothioyl)adamantane-1-carboxamide]	47
O=C(NC(=S)Nc1cccc2cccnc12)C12CC3CC(CC(C3)C1)C2 [Io, N-(quinolin-8-ylcarbamothioyl)adamantane-1-carboxamide]	70

Same assay, conditions: serial dilution curves; read-out: IC50 ± SEM, BzATP induced Ethidium Bromide dye uptake

SMILES	IC50 [nM]
O=C(NC(=S)Nc1cccnc1Cl)C12CC3CC(CC(C3)C1)C2 [If, N-((2-chloropyridin-3-yl)carbamothioyl)adamantane-1-carboxamide]	310 ± 70
O=C(NC(=S)Nc1cccc2cccnc12)C12CC3CC(CC(C3)C1)C2 [Io, N-(quinolin-8-ylcarbamothioyl)adamantane-1-carboxamide]	136 ± 20

Source: patent US20230141034A1, “ADAMANTANE-1-CARBONYL THIOUREA, AS P2X RECEPTOR ANTAGONIST” (COMSATS UNIVERSITY ISLAMABAD, priority 2021, published 2023)
